Results: ChEMBL document CHEMBL1614632, “Trend analysis of a database of intravenous pharmacokinetic parameters in humans for 670 drug compounds” (Drug Metab Dispos, 2008)
Numbered stars: 1 amine (or outer) side, 2 acyl side, 3 side chain; on linkers, the order of the positions; unused ones are H or OH. Bridge positions count the residues as written; N and C are the ends. Square brackets hold non-standard residues; d marks the D form. Peptide text beside a SMILES is read from it. * marks the point of attachment. X2 = O=C1C[C@@H](C(=O)[*:2])N([*:1])C[C@H]1CS[C@@H]1CN2CCC1CC2; NMePhe(4-NMe2) = CN[C@@H](Cc1ccc(N(C)C)cc1)C(=O)O; Picolinoyl(3-OH) = O=C(c1ncccc1O)*; Phg = N[C@H](C(=O)O)c1ccccc1; dAbu = CC[C@@H](N)C(=O)O

Experiments:
[1] = clinical; conditions: human, in vivo, iv
[2] = clinical; conditions: human, in vivo, iv, CL
[3] = clinical; conditions: human, in vivo, iv; remark: listed apart in the source
[4] = clinical; conditions: human, in vivo, iv, Vdss
[5] = clinical; conditions: human, in vivo, iv, t1/2

| Compound | fraction unbound [1] | clearance [2] [mL/min/kg] | MRT [3] [h] | Vd [4] [L/kg] | half-life [5] [h] |
| --- | --- | --- | --- | --- | --- |
| CC1(C)S[C@@H]2[C@H](NC(=O)[C@H](NC(=O)N3CCNC3=O)c3ccccc3)C(=O)N2[C@H]1C(=O)O [AZLOCILLIN] | 0.65 | 2.5 | 1.7 | 0.26 | 1.2 |
| O=C([O-])[O-].[Li+].[Li+] [LITHIUM CARBONATE] | 1 | 1.3 | 7.9 | 0.62 | 7.8 |
| CCCC(C)C1(CC)C(=O)NC(=S)NC1=O (stereo not given) [THIOPENTAL] | 0.14 | 8.2 | 2.4 | 1.2 | 2 |
| CC[C@H]1OC(=O)[C@H](C)C(=O)[C@H](C)[C@@H](O[C@@H]2O[C@H](C)C[C@H](N(C)C)[C@H]2O)[C@](C)(OC)C[C@@H](C)C(=O)[C@H](C)[C@H]2N(CCCCn3cnc(-c4cccnc4)c3)C(=O)O[C@]12C [TELITHROMYCIN] | 0.41 | 14 | 3.6 | 3 | 12 |
| Oc1ccc2c(c1)[C@@]13CCCC[C@@]1(O)[C@@H](C2)N(CC1CCC1)CC3 [BUTORPHANOL] | 0.17 | 41 | 5.3 | 12 | 4.8 |
| Cc1onc(-c2ccccc2)c1C(=O)N[C@@H]1C(=O)N2[C@@H]1SC(C)(C)[C@@H]2C(=O)O [OXACILLIN] | 0.07 | 6.3 | 0.5 | 0.19 | 0.7 |
| COc1ccc2c(c1)c(CC(=O)O)c(C)n2C(=O)c1ccc(Cl)cc1 [INDOMETHACIN] | 0.01 | 1.3 | 1.2 | 0.096 | 1.4 |
| O=C1OC2(c3ccc(O)cc3Oc3cc(O)ccc32)c2ccccc21 [FLUORESCEIN] | 0.11 | 1.3 | 1.8 | 0.14 | 1.6 |
| CCCC1C(=O)N2C(N(C)C)=Nc3ccc(C)cc3N2C1=O (stereo not given) [APAZONE] | 0.004 | 0.14 | 14 | 0.12 | 17 |
| CC(=O)O[C@H]1C(=O)[C@@]2(C)[C@H]([C@H](OC(=O)c3ccccc3)[C@]3(O)C[C@H](OC(=O)[C@H](O)[C@@H](NC(=O)c4ccccc4)c4ccccc4)C(C)=C1C3(C)C)[C@]1(OC(C)=O)CO[C@@H]1C[C@@H]2O [PACLITAXEL] | 0.12 | 6.4 | 7.8 | 3 | 11 |
| CC1(C)C[C@@H]1C(=O)N/C(=C\CCCCSC[C@H](N)C(=O)O)C(=O)O [CILASTATIN] | 0.6 | 2.3 | 1.1 | 0.15 | 0.86 |
| CC(=O)Nc1c(I)c(C(=O)O)c(I)c(N(C)C(C)=O)c1I [METRIZOIC ACID] | 1 | 2.7 | 1 | 0.17 | 1.3 |
| C[C@@H](O)[C@H]1C(=O)N2C(C(=O)[O-])=C(SC3Cn4cnc[n+]4C3)[C@H](C)[C@H]12 (stereo not given in full) [BIAPENEM] | 0.92 | 2.5 | 1.3 | 0.2 | 1.1 |
| CCOC(=O)C1(c2ccccc2)CCC=CC1N(C)C (stereo not given) [TILIDINE] | 0.21 | 16 | 4.2 | 4 | 5 |
| CC(=O)[C@H]1CC[C@H]2[C@@H]3CC[C@@H]4C[C@H](O)CC[C@]4(C)[C@H]3CC[C@]12C [ELTANOLONE] | 0.01 | 22 | 1.5 | 2 | 4.7 |
| O=NN(CCCl)C(=O)NCCCl [CARMUSTINE] | 0.23 | 78 | 0.26 | 1.2 | 0.37 |
| CC[C@H]1NC(=O)[C@@H](NC(=O)c2ncccc2O)[C@@H](C)OC(=O)[C@H](c2ccccc2)NC(=O)[C@@H]2CC(=O)[C@H](CS[C@@H]3CN4CCC3CC4)CN2C(=O)[C@H](Cc2ccc(N(C)C)cc2)N(C)C(=O)[C@@H]2CCCN2C1=O [QUINUPRISTIN] ({Picolinoyl(3-OH)}-T[dAbu]P[NMePhe(4-NMe2)][X2][Phg]; ester 1-C) | 0.34 | 16 | 0.7 | 0.67 | 0.87 |
| CCN(C)C(=O)Oc1cccc([C@H](C)N(C)C)c1 [RIVASTIGMINE] | 0.6 | 12 | 1.9 | 1.3 | 1.4 |
| C=C1CC[C@@]2(O)[C@H]3Cc4ccc(O)c5c4[C@@]2(CCN3CC2CC2)[C@H]1O5 | 0.65 | 15 | 9.1 | 8.2 | 8.8 |
| C[C@H](Cn1cnc2c(N)ncnc21)OCP(=O)(O)O [TENOFOVIR ANHYDROUS] | 0.93 | 3.1 | 3.8 | 0.83 | 5.8 |
| CN[C@@H]1C[C@H]2O[C@@](C)([C@@H]1OC)n1c3ccccc3c3c4c(c5c6ccccc6n2c5c31)C(=O)N[C@@H]4O | 0.0022 | 0.0037 | 680 | 0.15 | 790 |

| Compound | fraction unbound [1] | clearance [2] [mL/min/kg] | MRT [3] [h] | Vd [4] [L/kg] | half-life [5] [h] |
| --- | --- | --- | --- | --- | --- |
| NNc1nncc2ccccc12 [HYDRALAZINE] | 0.12 | 85 | 0.29 | 1.5 | 0.96 |
| CCOC(=O)[C@@H]1C2CCC(C[C@@H]1OC(=O)c1ccccc1)N2C (stereo not given in full) [COCAETHYLENE] | 0.64 | 13 | 2 | 1.6 | 1.5 |
| CN1CCN(CCCCN2C(=O)CN(/N=C/c3ccc(-c4ccc(Cl)cc4)o3)C2=O)CC1 [AZIMILIDE] | 0.06 | 2.4 | 100 | 13 | 79 |
| Cc1nnc2n1-c1sc(Br)cc1C(c1ccccc1Cl)=NC2 [BROTIZOLAM] | 0.092 | 2 | 6 | 0.75 | 4.8 |
| CC(=O)[C@]1(O)Cc2c(O)c3c(c(O)c2[C@@H](O[C@H]2C[C@H](N)[C@H](O)[C@H](C)O2)C1)C(=O)c1ccccc1C3=O [IDARUBICIN] | 0.076 | 24 | 26 | 38 | 16 |
| NCc1ccccc1CC(=O)N[C@@H]1C(=O)N2C(C(=O)O)=C(CSc3nnnn3CC(=O)O)CS[C@H]12 [CEFORANIDE] | 0.19 | 0.66 | 4.3 | 0.17 | 3 |
| COC(=O)C1=C(C)NC(C)=C(C(=O)OC(C)C)C1c1cccc2nonc12 (stereo not given) [ISRADIPINE] | 0.04 | 26 | 1 | 1.5 | 3.3 |
| CN1CC[C@H](c2c(O)cc(O)c3c(=O)cc(-c4ccccc4Cl)oc23)[C@H](O)C1 [ALVOCIDIB] | 0.06 | 6.1 | 4 | 1.5 | 5.2 |
| CCc1nc(N)nc(N)c1-c1ccc(Cl)cc1 [PYRIMETHAMINE] | 0.095 | 0.052 | 140 | 0.43 | 140 |
| COc1cc([C@@H]2c3cc4c(cc3[C@@H](O[C@@H]3O[C@@H]5CO[C@@H](c6cccs6)O[C@H]5[C@H](O)[C@H]3O)[C@H]3COC(=O)[C@H]23)OCO4)cc(OC)c1O [TENIPOSIDE] | 0.0044 | 0.19 | 37 | 0.41 | 16 |
| CCN(CC)CCS(=O)(=O)[C@@H]1CCN2C(=O)c3coc(n3)CC(=O)C[C@H](O)/C=C(C)/C=C/CNC(=O)/C=C/[C@@H](C)[C@@H](C(C)C)OC(=O)[C@@H]12 [DALFOPRISTIN] | 0.82 | 16 | 0.41 | 0.39 | 0.74 |
| C[C@@H]1CC(=O)NN=C1c1ccc(NN=C(C#N)C#N)cc1 [LEVOSIMENDAN] | 0.02 | 3.8 | 1.1 | 0.24 | 1.1 |
| Cc1ccc(-c2ncc(Cl)cc2-c2ccc(S(C)(=O)=O)cc2)cn1 [ETORICOXIB] | 0.081 | 0.79 | 32 | 1.5 | 26 |
| CC1(C)S[C@@H]2[C@H](NC(=O)[C@H](C(=O)O)c3ccsc3)C(=O)N2[C@H]1C(=O)O [TICARCILLIN] | 0.55 | 1.8 | 1.5 | 0.16 | 1 |
| CN(C)c1cc(NC(=O)CNC(C)(C)C)c(O)c2c1C[C@H]1C[C@H]3[C@H](N(C)C)C(O)=C(C(N)=O)C(=O)[C@@]3(O)C(O)=C1C2=O [TIGECYCLINE] | 0.2 | 3.8 | 53 | 12 | 48 |
| CCC1CN2CCC1CC2[C@@H](O)c1ccnc2ccc(OC)cc12 (stereo not given in full) [DIHYDROQUINIDINE] | 0.22 | 4.2 | 11 | 2.8 | 5.7 |
| O=P(O)(O)OC(Cn1cncn1)(Cn1cncn1)c1ccc(F)cc1F [FOSFLUCONAZOLE] | 0.042 | 1.3 | 2 | 0.15 | 2.1 |
| COc1cccc(OC)c1C(=O)N[C@@H]1C(=O)N2[C@@H]1SC(C)(C)[C@@H]2C(=O)O [METHICILLIN] | 0.43 | 6.6 | 0.8 | 0.32 | 0.64 |
| CN(C)CCCN1c2ccccc2Sc2ccccc21 [PROMAZINE] | 0.11 | 14 | 9.6 | 8.1 | 7.9 |
| CNC1(c2ccccc2Cl)CCCCC1=O (stereo not given) [KETAMINE] | 0.47 | 19 | 2.5 | 2.9 | 2.8 |
